Laboratory results: PubChem BioAssay (NCI)
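Values below derive from 48-hour exposures of cells grown in 96-well plates, with endpoints linearly interpolated between the two concentrations bracketing the appropriate inhibition level. The concentration for 50% growth inhibition is given as GI50. The concentration for full growth arrest is given as TGI.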

Assays:
Assay in all cases: NCI anticancer screen, dose series, 48 h
786-0 renal = tested on: 786-0 renal
A498 renal = tested on: A498 renal
A549 NSCLC = tested on: A549 NSCLC
ACHN renal = tested on: ACHN renal
BT-549 breast = tested on: BT-549 breast
CAKI-1 renal = tested on: CAKI-1 renal
CCRF-CEM leukemia = tested on: CCRF-CEM leukemia
COLO 205 colon = tested on: COLO 205 colon
DU-145 prostate = tested on: DU-145 prostate
EKVX NSCLC = tested on: EKVX NSCLC
HCC-2998 colon = tested on: HCC-2998 colon
HCT-116 colon = tested on: HCT-116 colon
HCT-15 colon = tested on: HCT-15 colon
HL-60(TB) leukemia = tested on: HL-60(TB) leukemia
HOP-62 NSCLC = tested on: HOP-62 NSCLC
HOP-92 NSCLC = tested on: HOP-92 NSCLC
HS 578T breast = tested on: HS 578T breast
HT29 colon = tested on: HT29 colon
IGROV1 ovarian = tested on: IGROV1 ovarian
K-562 leukemia = tested on: K-562 leukemia
KM12 colon = tested on: KM12 colon
LOX IMVI melanoma = tested on: LOX IMVI melanoma
M14 melanoma = tested on: M14 melanoma
MALME-3M melanoma = tested on: MALME-3M melanoma
MCF7 breast = tested on: MCF7 breast
MDA-MB-231 breast = tested on: MDA-MB-231 breast
MDA-MB-435 = tested on: MDA-MB-435
MDA-MB-468 breast = tested on: MDA-MB-468 breast
MOLT-4 leukemia = tested on: MOLT-4 leukemia
NCI-H226 lung = tested on: NCI-H226 lung
NCI-H23 lung = tested on: NCI-H23 lung
NCI-H460 lung = tested on: NCI-H460 lung
NCI-H522 lung = tested on: NCI-H522 lung
OVCAR-3 ovarian = tested on: OVCAR-3 ovarian
OVCAR-4 ovarian = tested on: OVCAR-4 ovarian
OVCAR-5 ovarian = tested on: OVCAR-5 ovarian
OVCAR-8 ovarian = tested on: OVCAR-8 ovarian
PC-3 prostate = tested on: PC-3 prostate
RPMI-8226 leukemia = tested on: RPMI-8226 leukemia
RXF 393 renal = tested on: RXF 393 renal
SF-268 CNS = tested on: SF-268 CNS
SF-295 CNS = tested on: SF-295 CNS
SF-539 CNS = tested on: SF-539 CNS
SK-MEL-2 melanoma = tested on: SK-MEL-2 melanoma
SK-MEL-28 melanoma = tested on: SK-MEL-28 melanoma
SK-MEL-5 melanoma = tested on: SK-MEL-5 melanoma
SK-OV-3 ovarian = tested on: SK-OV-3 ovarian
SN12C renal = tested on: SN12C renal
SNB-19 CNS = tested on: SNB-19 CNS
SNB-75 CNS = tested on: SNB-75 CNS
SR leukemia = tested on: SR leukemia
SW-620 colon = tested on: SW-620 colon
T-47D breast = tested on: T-47D breast
TK-10 renal = tested on: TK-10 renal
U251 CNS = tested on: U251 CNS
UACC-257 melanoma = tested on: UACC-257 melanoma
UACC-62 melanoma = tested on: UACC-62 melanoma
UO-31 renal = tested on: UO-31 renal

Compound: CCOc1ccc(/C=N/NC(=O)Cn2nc(Cc3ccccc3)c3onc(C)c3c2=O)cc1
- GI50 (786-0 renal): 5.99 µM
- TGI (786-0 renal): 17.6 µM
- GI50 (A498 renal): 19.9 µM
- TGI (A498 renal): > 59.6 µM
- GI50 (A549 NSCLC): > 100 µM
- TGI (A549 NSCLC): > 100 µM
- GI50 (ACHN renal): 11.3 µM
- TGI (ACHN renal): > 52.4 µM
- GI50 (BT-549 breast): 13.5 µM
- TGI (BT-549 breast): > 24.8 µM
- GI50 (CAKI-1 renal): 14 µM
- TGI (CAKI-1 renal): > 95.8 µM
- GI50 (CCRF-CEM leukemia): > 100 µM
- TGI (CCRF-CEM leukemia): > 100 µM
- GI50 (COLO 205 colon): > 100 µM
- TGI (COLO 205 colon): > 100 µM
- GI50 (DU-145 prostate): > 100 µM
- TGI (DU-145 prostate): > 100 µM
- GI50 (EKVX NSCLC): > 100 µM
- TGI (EKVX NSCLC): > 100 µM
- GI50 (HCC-2998 colon): > 100 µM
- TGI (HCC-2998 colon): > 100 µM
- GI50 (HCT-116 colon): > 100 µM
- TGI (HCT-116 colon): > 100 µM
- GI50 (HCT-15 colon): > 100 µM
- TGI (HCT-15 colon): > 100 µM
- GI50 (HL-60(TB) leukemia): > 100 µM
- TGI (HL-60(TB) leukemia): > 100 µM
- GI50 (HOP-62 NSCLC): 4.4 µM
- TGI (HOP-62 NSCLC): 28.4 µM
- GI50 (HOP-92 NSCLC): 5.71 µM
- TGI (HOP-92 NSCLC): 21.7 µM
- GI50 (HS 578T breast): 3.57 µM
- TGI (HS 578T breast): > 25.6 µM
- GI50 (HT29 colon): > 100 µM
- TGI (HT29 colon): > 100 µM
- GI50 (IGROV1 ovarian): 47.4 µM
- TGI (IGROV1 ovarian): > 100 µM
- GI50 (K-562 leukemia): > 100 µM
- TGI (K-562 leukemia): > 100 µM
- GI50 (KM12 colon): > 100 µM
- TGI (KM12 colon): > 100 µM
- GI50 (LOX IMVI melanoma): > 100 µM
- TGI (LOX IMVI melanoma): > 100 µM
- GI50 (M14 melanoma): > 21.6 µM
- TGI (M14 melanoma): > 100 µM
- GI50 (MALME-3M melanoma): 12 µM
- TGI (MALME-3M melanoma): > 100 µM
- GI50 (MCF7 breast): > 100 µM
- TGI (MCF7 breast): > 100 µM
- GI50 (MDA-MB-231 breast): 8.26 µM
- TGI (MDA-MB-231 breast): > 37.6 µM
- GI50 (MDA-MB-435): > 100 µM
- TGI (MDA-MB-435): > 100 µM
- GI50 (MDA-MB-468 breast): 9.09 µM
- TGI (MDA-MB-468 breast): 44.6 µM
- GI50 (MOLT-4 leukemia): > 100 µM
- TGI (MOLT-4 leukemia): > 100 µM
- GI50 (NCI-H226 lung): 4.76 µM
- TGI (NCI-H226 lung): > 24.7 µM
- GI50 (NCI-H23 lung): 30.4 µM
- TGI (NCI-H23 lung): > 100 µM
- GI50 (NCI-H460 lung): > 100 µM
- TGI (NCI-H460 lung): > 100 µM
- GI50 (NCI-H522 lung): > 31.3 µM
- TGI (NCI-H522 lung): > 87.2 µM
- GI50 (OVCAR-3 ovarian): > 100 µM
- TGI (OVCAR-3 ovarian): > 100 µM
- GI50 (OVCAR-4 ovarian): 2.93 µM
- TGI (OVCAR-4 ovarian): > 100 µM
- GI50 (OVCAR-5 ovarian): > 100 µM
- TGI (OVCAR-5 ovarian): > 100 µM
- GI50 (OVCAR-8 ovarian): > 100 µM
- TGI (OVCAR-8 ovarian): > 100 µM
- GI50 (PC-3 prostate): > 100 µM
- TGI (PC-3 prostate): > 100 µM
- GI50 (RPMI-8226 leukemia): > 100 µM
- TGI (RPMI-8226 leukemia): > 100 µM
- GI50 (RXF 393 renal): 5.82 µM
- TGI (RXF 393 renal): 22.5 µM
- GI50 (SF-268 CNS): 15.7 µM
- TGI (SF-268 CNS): > 100 µM
- GI50 (SF-295 CNS): 14.7 µM
- TGI (SF-295 CNS): > 61 µM
- GI50 (SF-539 CNS): 19.5 µM
- TGI (SF-539 CNS): > 64.5 µM
- GI50 (SK-MEL-2 melanoma): 15.5 µM
- TGI (SK-MEL-2 melanoma): 33.1 µM
- GI50 (SK-MEL-28 melanoma): > 100 µM
- TGI (SK-MEL-28 melanoma): > 100 µM
- GI50 (SK-MEL-5 melanoma): > 100 µM
- TGI (SK-MEL-5 melanoma): > 100 µM
- GI50 (SK-OV-3 ovarian): 13.8 µM
- TGI (SK-OV-3 ovarian): > 66.8 µM
- GI50 (SN12C renal): > 100 µM
- TGI (SN12C renal): > 100 µM
- GI50 (SNB-19 CNS): 16.3 µM
- TGI (SNB-19 CNS): > 52.4 µM
- GI50 (SNB-75 CNS): 2.61 µM
- TGI (SNB-75 CNS): 13.8 µM
- GI50 (SR leukemia): > 100 µM
- TGI (SR leukemia): > 100 µM
- GI50 (SW-620 colon): > 100 µM
- TGI (SW-620 colon): > 100 µM
- GI50 (T-47D breast): > 20.4 µM
- TGI (T-47D breast): > 100 µM
- GI50 (TK-10 renal): > 40.2 µM
- TGI (TK-10 renal): > 66.2 µM
- GI50 (U251 CNS): 9.01 µM
- TGI (U251 CNS): > 100 µM
- GI50 (UACC-257 melanoma): > 100 µM
- TGI (UACC-257 melanoma): > 100 µM
- GI50 (UACC-62 melanoma): > 19.9 µM
- TGI (UACC-62 melanoma): > 100 µM
- GI50 (UO-31 renal): > 100 µM
- TGI (UO-31 renal): > 100 µM
